Measurements as given in ChEMBL document CHEMBL1201862, “PubChem BioAssay data set” (2004).
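Method: 48-hour compound exposure of cells in 96-well plates, five concentrations, linear interpolation of endpoints. GI50 = concentration required for 50% inhibition of growth.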 Active and inactive are the calls of the source. Cut-off read from the data, not from the text of the source: active = GI50 up to about 1.1 µM and inactive = higher.

How the values were obtained:
Assay in all cases: DTP human tumour cell line panel, 48 h
HCC 2998 = test system: HCC 2998
UACC-257 = test system: UACC-257
NCI-H226 = test system: NCI-H226
HCT-116 = test system: HCT-116
OVCAR-3 = test system: OVCAR-3
NCI-H460 = test system: NCI-H460
EKVX = test system: EKVX
SN12C = test system: SN12C
NCI-H23 = test system: NCI-H23
HCT-15 = test system: HCT-15
SF-295 = test system: SF-295
MDA-N = test system: MDA-N
Malme-3M = test system: Malme-3M
SF-539 = test system: SF-539
MCF7 = test system: MCF7
NCI-H522 = test system: NCI-H522
OVCAR-8 = test system: OVCAR-8
MOLT-4 = test system: MOLT-4
HL-60 = test system: HL-60
Hs-578T = test system: Hs-578T

Row | SMILES | GI50 (HCC 2998) | GI50 (UACC-257) | GI50 (NCI-H226) | GI50 (HCT-116) | GI50 (OVCAR-3) | GI50 (NCI-H460) | GI50 (EKVX) | GI50 (SN12C) | GI50 (NCI-H23) | GI50 (HCT-15) | GI50 (SF-295) | GI50 (MDA-N) | GI50 (Malme-3M) | GI50 (SF-539) | GI50 (MCF7) | GI50 (NCI-H522) | GI50 (OVCAR-8) | GI50 (MOLT-4) | GI50 (HL-60) | GI50 (Hs-578T)
1 | Cc1cc2[nH]c3c(C#N)c(-c4ccccc4)c(/C=N/c4cccc(C(F)(F)F)c4)c(=O)n3c2cc1C | > 100 µM (inactive) | > 100 µM (inactive) | > 100 µM (inactive) | 40.8 µM (inactive) | 16.3 µM (inactive) | > 100 µM (inactive) | > 100 µM (inactive) | 89.9 µM (inactive) | > 100 µM (inactive) | 74.1 µM | 64.3 µM (inactive) | 79.3 µM (inactive) | > 100 µM (inactive) | 63.4 µM (inactive) | 79.8 µM (inactive) | 39.4 µM (inactive) | > 100 µM (inactive) |  |  | 
2 | O=C(NNS(=O)(=O)c1ccccc1)c1csc(NC(=S)NC2CCCCC2)n1 | 29 µM (inactive) | 22.8 µM (inactive) | 67.5 µM (inactive) | 18.1 µM (inactive) | 4.07 µM (inactive) |  | 35.6 µM (inactive) | 20.8 µM (inactive) | 48 µM (inactive) | 41.6 µM | 32.1 µM (inactive) | 18.5 µM (inactive) | 35.4 µM (inactive) | 37.5 µM (inactive) | 41 µM (inactive) | 26.2 µM (inactive) | 33.5 µM (inactive) | 36.5 µM (inactive) | 69.5 µM (inactive) | 
3 | COc1cc(N(C)C)ccc1C=c1c2ccccc2n2c1cc(-c1ccccc1)[n+]2C | 0.48 µM (active) | 0.319 µM (active) | 0.518 µM (active) | 0.175 µM (active) | 0.392 µM (active) | 0.294 µM (active) | 0.575 µM (active) | 0.296 µM (active) | 0.237 µM (active) | 0.979 µM | 0.336 µM (active) | 0.308 µM (active) | 1.02 µM (active) | 0.0813 µM (active) | 0.302 µM (active) | 0.169 µM (active) | 0.163 µM (active) | 0.222 µM (active) | 0.149 µM (active) | 
4 | Nc1nc(N)c2ncn(Cc3ccccc3CCl)c2n1 |  | > 100 µM (inactive) | > 100 µM (inactive) | > 100 µM (inactive) | > 100 µM (inactive) | > 100 µM (inactive) | > 100 µM (inactive) | > 100 µM (inactive) | > 100 µM (inactive) | > 100 µM | > 100 µM (inactive) |  | > 100 µM (inactive) | > 100 µM (inactive) | > 100 µM (inactive) | > 100 µM (inactive) | > 100 µM (inactive) | > 100 µM (inactive) | 0.115 µM (active) | > 100 µM (inactive)
5 | Cc1c(-c2nnc(-c3ccccc3)o2)c(=O)n(-c2ccccc2)n1C | > 100 µM (inactive) | > 100 µM (inactive) | > 100 µM (inactive) | > 100 µM (inactive) | > 100 µM (inactive) | > 100 µM (inactive) | > 100 µM (inactive) | > 100 µM (inactive) | > 100 µM (inactive) | > 100 µM | > 100 µM (inactive) |  | > 100 µM (inactive) | > 100 µM (inactive) |  | > 100 µM (inactive) | > 100 µM (inactive) | > 100 µM (inactive) | > 100 µM (inactive) | 
6 | COCN1C(=O)[C@@H]2CCCN2C(=O)c2cc([N+](=O)[O-])ccc21 |  | > 100 µM (inactive) | 2.21 µM (inactive) | 86.9 µM (inactive) |  |  | > 100 µM (inactive) | > 100 µM (inactive) | 86.7 µM (inactive) | > 100 µM | 35.5 µM (inactive) |  | 88.5 µM (inactive) | > 100 µM (inactive) | 46.3 µM (inactive) | 16 µM (inactive) | > 100 µM (inactive) |  |  | > 100 µM (inactive)
7 | COc1cc(C2C(Cl)C(=O)N2NC(=O)c2ccc(N)cc2)ccc1O (stereo not drawn) | 20.2 µM (inactive) | > 100 µM (inactive) | 95.7 µM (inactive) | 22.9 µM (inactive) | 16.6 µM (inactive) | 22.9 µM (inactive) | 92 µM (inactive) | 32 µM (inactive) | 20.9 µM (inactive) | 39.9 µM | 67.8 µM (inactive) |  | 16.5 µM (inactive) | 26.5 µM (inactive) |  | 19.8 µM (inactive) | 21.5 µM (inactive) | 23.5 µM (inactive) | 27.9 µM (inactive) | 
8 | O=C(Nc1ccccc1)C(=O)C(C(=O)c1ccccc1)C(c1ccccc1)c1ccccc1 (stereo not drawn) | > 10 µM (inactive) | > 10 µM (inactive) |  |  |  |  | > 10 µM (inactive) | > 10 µM (inactive) | > 10 µM (inactive) | > 10 µM | > 10 µM (inactive) | > 10 µM (inactive) | > 10 µM (inactive) |  | > 10 µM (inactive) |  | > 10 µM (inactive) | > 10 µM (inactive) | > 10 µM (inactive) | 
